Changes are numbered by the printed parent chain.
Tests used:
[1] = Mouse hepatocyte stability; type: in vitro ADME; conditions: hepatocytes
[2] = Human hepatocyte stability; type: in vitro ADME; conditions: hepatocytes
[3] = Plasma protein binding, rapid equilibrium dialysis, cyno plasma; type: in vitro ADME, cynomolgus monkey
ERα = molecular target: T1, ERα (Homo sapiens, UniProt P03372); assay: Reporter assay of gene transcription activity, ERα; type: cell-based
T1 sequence (P03372 1-595): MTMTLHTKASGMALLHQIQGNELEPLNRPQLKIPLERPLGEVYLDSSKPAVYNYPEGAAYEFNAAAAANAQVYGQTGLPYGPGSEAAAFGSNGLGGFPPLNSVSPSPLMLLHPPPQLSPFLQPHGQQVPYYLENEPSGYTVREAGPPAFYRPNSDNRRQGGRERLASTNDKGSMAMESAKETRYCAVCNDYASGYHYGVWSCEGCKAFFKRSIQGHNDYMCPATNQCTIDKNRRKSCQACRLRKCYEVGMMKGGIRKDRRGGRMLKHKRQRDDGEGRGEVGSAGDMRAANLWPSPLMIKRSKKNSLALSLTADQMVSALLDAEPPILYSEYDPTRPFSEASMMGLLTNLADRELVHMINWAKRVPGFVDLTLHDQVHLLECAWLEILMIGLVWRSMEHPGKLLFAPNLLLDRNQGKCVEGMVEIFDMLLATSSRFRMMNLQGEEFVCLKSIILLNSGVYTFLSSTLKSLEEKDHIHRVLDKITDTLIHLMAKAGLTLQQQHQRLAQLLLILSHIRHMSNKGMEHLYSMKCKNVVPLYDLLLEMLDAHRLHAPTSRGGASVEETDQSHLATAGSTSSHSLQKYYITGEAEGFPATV

GR = molecular target: T2, GR (Homo sapiens, UniProt P04150); assay: Reporter assay of gene transcription activity, GR; type: cell-based
T2 sequence (P04150 1-777): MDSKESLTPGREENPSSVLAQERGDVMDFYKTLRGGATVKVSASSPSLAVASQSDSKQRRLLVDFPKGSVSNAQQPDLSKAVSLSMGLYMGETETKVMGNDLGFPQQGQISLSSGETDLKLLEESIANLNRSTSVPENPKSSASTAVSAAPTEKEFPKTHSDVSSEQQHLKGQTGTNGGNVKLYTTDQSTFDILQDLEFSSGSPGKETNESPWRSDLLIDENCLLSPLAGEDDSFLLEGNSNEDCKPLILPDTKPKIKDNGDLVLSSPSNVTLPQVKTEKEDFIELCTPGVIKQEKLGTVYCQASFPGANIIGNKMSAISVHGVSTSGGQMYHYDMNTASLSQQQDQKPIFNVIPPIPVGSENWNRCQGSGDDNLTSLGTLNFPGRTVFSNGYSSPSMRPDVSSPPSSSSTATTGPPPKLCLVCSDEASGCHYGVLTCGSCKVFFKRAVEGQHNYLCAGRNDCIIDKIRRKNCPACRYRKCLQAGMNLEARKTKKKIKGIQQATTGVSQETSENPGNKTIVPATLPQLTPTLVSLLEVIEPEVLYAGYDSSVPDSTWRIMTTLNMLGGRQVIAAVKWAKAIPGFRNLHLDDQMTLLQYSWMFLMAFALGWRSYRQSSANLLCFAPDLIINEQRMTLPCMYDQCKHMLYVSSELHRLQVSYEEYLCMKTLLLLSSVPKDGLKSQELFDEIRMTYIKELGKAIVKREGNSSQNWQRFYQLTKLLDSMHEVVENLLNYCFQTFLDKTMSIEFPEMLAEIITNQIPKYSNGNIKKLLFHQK

ESR1 WT = molecular target: T3, ESR1 WT (Homo sapiens, UniProt P03372); assay: AP; type: cell-based
T3 sequence (P03372 1-595): T1 sequence (P03372 1-595)

ESR1 Tyr537Ser = molecular target: T4, ESR1 Tyr537Ser (Homo sapiens, UniProt P03372, Y537S); assay: AP; type: cell-based
T4 sequence (P03372 1-595 Y537S): T1 sequence (P03372 1-595) with Y537S

[4] = system: CAMA-1 ESR1 Asp538Gly cells; assay: CAMA-1 cell proliferation, ESR1 Asp538Gly; type: cell-based; conditions: Homo sapiens, CAMA-1, read-out: CAMA-1 cell prolif. pIC50 (converted)
CYP 3A4 = CYP 3A4 (Homo sapiens, UniProt P08684); assay: CYP inhibition in human liver microsomes; type: in vitro ADME
CYP 3A4, sequence (P08684 whole entry): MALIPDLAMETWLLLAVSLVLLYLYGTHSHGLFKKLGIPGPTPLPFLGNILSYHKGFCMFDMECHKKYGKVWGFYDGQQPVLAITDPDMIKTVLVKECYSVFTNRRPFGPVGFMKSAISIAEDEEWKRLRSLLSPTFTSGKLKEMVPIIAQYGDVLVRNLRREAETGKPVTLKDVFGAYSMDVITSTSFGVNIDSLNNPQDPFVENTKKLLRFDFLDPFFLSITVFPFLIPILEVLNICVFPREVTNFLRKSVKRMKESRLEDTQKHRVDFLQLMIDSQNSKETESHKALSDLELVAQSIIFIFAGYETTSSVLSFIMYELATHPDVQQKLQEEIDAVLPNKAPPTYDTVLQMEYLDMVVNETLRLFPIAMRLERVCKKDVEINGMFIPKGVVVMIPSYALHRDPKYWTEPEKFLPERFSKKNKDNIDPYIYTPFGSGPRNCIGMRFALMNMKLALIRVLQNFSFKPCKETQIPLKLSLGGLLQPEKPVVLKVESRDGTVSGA

half-life [1]: > 6 h
hepatocyte CLint [1]: < 3.9 µL/min/1e6 cells
half-life [2]: 2.17 h
hepatocyte CLint [2]: 10.7 µL/min/1e6 cells
Plasma free drug percentage [3]: 0.13%
IC50 (ERα; ERα pIC50, agonist mode, agonist mode): > 3160 nM
IC50 (ERα; ERα pIC50, antag. mode, antag. mode): 1 nM
IC50 (GR): > 3160 nM
agonist cross-reactivity on GR (GR; in words): no agonist cross-reactivity
GR pIC50, antag. mode (GR; reporter assay, antag. mode): <5.5
IC50 (ESR1 WT): 2.51 nM
IC50 (ESR1 Tyr537Ser): 50.1 nM
IC50 (CYP 3A4): > 10000 nM
SMILES: CCCN1CC(Oc2ccc([C@@H]3c4[nH]c5ccccc5c4C[C@@H](C)N3CC(C)(C)F)cc2)C1 [compound 21, (1R,3R)-2-(2-Fluoro-2-methylpropyl)-3-methyl-1-(4-((1-propylazetidin-3-yl)oxy)phenyl)-2,3,4,9-tetrahydro-1H-pyrido[3,4-b]indole]
IC50 [4]: 6.31 nM
